Measured values published in patent publication US20240238290A1, “USE OF COMPLEMENT FACTOR D INHIBITOR FOR TREATMENT OF GENERALIZED MYASTHENIA GRAVIS” (Alexion Pharmaceuticals, Inc., priority 2021, published 2024).

Experiments:
FD (complement factor D) = FD (complement factor D) (Homo sapiens, UniProt P00746); experiment: Inhibition of factor D
[1] = system: complement alternative pathway (AP) activity; experiment: AP inhibition in the AP Wieslab assay (PD), Phase 1 healthy volunteer studies; type: in vivo, human
Experimental: (§1) In addition, both dosage regimens provided complete (>90%) and sustained inhibition of AP activity throughout the 12-hour dosing interval. Therefore, 120 mg BID is selected as the minimum therapeutic dosage.

plasma Bb = experiment: Biomarkers of AP activity in vivo (plasma Bb levels)
[2] = Safety and safety margin of multiple dose regimens versus NOAEL exposures from nonclinical chronic toxicology studies; type: in vivo, human; conditions: multiple dose study
Experimental: as §1

[3] = Phase 1 single ascending and multiple ascending dose studies, PK; type: in vivo, human; conditions: for PK exposures versus dose: healthy volunteers

FD (complement factor D), sequence (P00746 26-253): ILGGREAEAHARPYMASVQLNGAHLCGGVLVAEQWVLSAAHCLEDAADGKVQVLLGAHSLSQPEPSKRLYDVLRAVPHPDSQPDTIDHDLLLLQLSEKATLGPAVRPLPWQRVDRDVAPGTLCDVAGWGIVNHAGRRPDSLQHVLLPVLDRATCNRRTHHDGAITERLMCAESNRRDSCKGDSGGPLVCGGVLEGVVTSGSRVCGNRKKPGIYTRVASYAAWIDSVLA

CC(=O)c1nn(CC(=O)N2[C@H](C(=O)Nc3nc(Br)ccc3C)C[C@@]3(C)C[C@@H]23)c2ccc(-c3cnc(C)nc3)cc12 [Compound 1, vemircopan]
inhibition of FD (FD (complement factor D)): potent inhibitor | inhibition at 120 mg ([1]; Homo sapiens, 120 mg BID, sustained throughout the 12-hour dosing interval): > 90% | inhibition at 200 mg ([1]; Homo sapiens, 200 mg BID, sustained throughout the 12-hour dosing interval): > 90% | PD activity as determined by AP inhibition in the AP Wieslab assay ([1]; healthy volunteers, Phase 1): increased with increasing exposure | inhibition of complement AP activity in vivo ([1]; in vivo): dose dependent inhibition | plasma Bb levels following administration (plasma Bb): significant dose-dependent reductions | safety and effectiveness of dosage regimen ([2]; 120 mg BID): safe and effective | safety margin in AUC0-24 over exposures at NOAEL ([2]; 120 mg BID): ≥ 10 fold | safety margin in Cmax over exposures at NOAEL ([2]; 120 mg BID): ≥ 10 fold | safety and effectiveness of dosage regimen ([2]; 200 mg BID): safe and effective | safety margin in AUC0-24 over exposures at NOAEL ([2]; 200 mg BID): ≥ 10 fold | safety margin in Cmax over exposures at NOAEL ([2]; 200 mg BID): ≥ 10 fold | variability in the PK and PD data and PK/PD relationship ([3]; Phase 1 healthy volunteers): large variabilities | PK exposures versus dose ([3]; following single doses): increased dose proportionally | PK exposures versus dose ([3]; multiple doses at steady state, 40 mg BID to 200 mg BID): greater than dose proportional manner
